Test results as given in US11304929B2, “Tosylacetate based compounds and derivatives thereof as PHGDH inhibitors” (priority 2017, dated 2022).
Where two headings read alike, the source gives them in different places.

Legend:
MDA-MB-468 = experiment: 13C3 Serine Assay MDA-MB-468 (13C3 serine levels by LC/MS/MS); assay type: cell-based
PHGDH = PHGDH (Homo sapiens (Human), UniProt O43175); experiment: 3-Phosphoglycerate Dehydrogenase (PHGDH) Fluorescence Intensity Assay, run at two NAD/3-PG ratios: PHGDH_HIGH_NAD/3-PG (250 μM NAD/500 μM 3-PG) and PHGDH_500_NAD/3-PG (500 μM NAD/500 μM 3-PG); assay type: biochemical
Sequence of PHGDH (O43175 2-533 limits assumed): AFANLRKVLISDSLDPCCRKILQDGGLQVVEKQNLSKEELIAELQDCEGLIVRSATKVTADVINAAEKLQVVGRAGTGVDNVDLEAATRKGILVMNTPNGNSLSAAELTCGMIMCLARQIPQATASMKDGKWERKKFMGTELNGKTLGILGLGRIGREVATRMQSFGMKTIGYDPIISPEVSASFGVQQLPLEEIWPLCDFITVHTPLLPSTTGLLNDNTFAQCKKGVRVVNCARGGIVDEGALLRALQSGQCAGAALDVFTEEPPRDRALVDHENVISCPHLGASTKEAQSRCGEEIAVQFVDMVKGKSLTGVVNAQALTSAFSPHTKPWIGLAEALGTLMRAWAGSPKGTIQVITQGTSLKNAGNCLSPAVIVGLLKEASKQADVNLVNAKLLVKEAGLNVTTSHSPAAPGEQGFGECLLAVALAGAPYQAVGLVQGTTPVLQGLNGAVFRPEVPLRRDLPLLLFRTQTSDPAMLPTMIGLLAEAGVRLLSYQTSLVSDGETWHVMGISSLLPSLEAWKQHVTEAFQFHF

[1] = Homo sapiens, MDA-MB-468 cells, 13C3 serine levels by LC/MS/MS, read-out: IC50 (13CSERINE)
[2] = 250 μM NAD/500 μM 3-PG, read-out: IC50 (PHGDH_HIGH_NAD/3-PG)
[3] = 500 μM NAD/500 μM 3-PG, read-out: IC50 (PHGDH_500_NAD/3-PG)

SMILES | IC50 (MDA-MB-468; [1]) | IC50 (PHGDH; [2]) | other results
COC(=O)CS(=O)(=O)c1ccc([C@@H](C)NC(=O)c2cc3c(Cl)c(Cl)c(C)cc3n2C)cc1 [Example 01-001, methyl 2-{4-[(1R)-1-[(4,5-dichloro-1,6-dimethyl-1H-indol-2-yl)formamido]ethyl]benzenesulfonyl}acetate] | 7 nM | 441 nM | 
Cc1cc(Cl)c2cc(C(=O)N[C@H](CO)c3ccc(S(=O)(=O)CC(=O)O)cc3)n(C)c2c1 [Example 03-002, 2-{4-[(1S)-1-[(4-chloro-1,6-dimethyl-1H-indol-2-yl)formamido]-2-hydroxyethyl]benzenesulfonyl}acetic acid] |  | 6 nM | IC50 (MDA-MB-468; Homo sapiens, MDA-MB-468, read-out: IC50 (13CSERINE)): 1380 nM
Cc1cc(Cl)c2cc(C(=O)N[C@H](C)c3ccc(S(=O)(=O)C(C)(C)C(N)=O)cc3)n(C)c2c1 [Example 15-007, N-[(1R)-1-[4-(1-carbamoyl-1-methylethanesulfonyl)phenyl]ethyl]-4-chloro-1,6-dimethyl-1H-indole-2-carboxamide] | 3220 nM |  | 
Cc1cc(Cl)c2cc(C(=O)N[C@H](C)c3ccc(S(=O)(=O)CC(=O)OCCOCCO)cc3)n(C)c2c1 [Example 09-005, 2-(2-hydroxyethoxy)ethyl 2-{4-[(1R)-1-[(4-chloro-1,6-dimethyl-1H-indol-2-yl)formamido]ethyl]benzenesulfonyl}acetate] | 139 nM | 197 nM | 
COC(=O)CS(=O)(=O)c1ccc([C@@H](C)NC(=O)c2cc3c(Cl)cc(C)cc3n2C)nc1 [Example 01-029, methyl 2-({6-[(1R)-1-[(4-chloro-1,6-dimethyl-1H-indol-2-yl)formamido]ethyl]pyridin-3-yl}sulfonyl)acetate] | 51.4 nM |  | 
Cc1cc(Cl)c2cc(C(=O)N[C@H](C)c3ccc(S(=O)(=O)CC(=O)OC(C)C)cc3)n(C)c2c1 [Example 01-018, propan-2-yl 2-{4-[(1R)-1-[(4-chloro-1,6-dimethyl-1H-indol-2-yl)formamido]ethyl]benzenesulfonyl}acetate] | 66.3 nM |  | 
Cc1cc(Cl)c2cc(C(=O)N[C@H](C)c3ccc(S(=O)(=O)CC(=O)OCCOC(=O)CS(=O)(=O)c4ccc([C@@H](C)NC(=O)c5cc6c(Cl)cc(C)cc6n5C)cc4)cc3)n(C)c2c1 [Example 15-011, 2-[(2-{4-[(1R)-1-[(4-chloro-1,6-dimethyl-1H-indol-2-yl)formamido]ethyl]benzenesulfonyl}acetyl)oxy]ethyl 2-{4-[(1R)-1-[(4-chloro-1,6-dimethyl-1H-indol-2-yl)formamido]ethyl]benzenesulfonyl}acetate] | 249 nM |  | 
C[C@@H](NC(=O)c1cc(-c2ccc(F)cc2)nn1C)c1ccc(S(=O)(=O)CC(=O)NOCCN2CCOCC2)cc1 [Example 15-001, 3-(4-fluorophenyl)-1-methyl-N-[(1R)-1-[4-({[2-(morpholin-4-yl)ethoxy]carbamoyl}methanesulfonyl)phenyl]ethyl]-1H-pyrazole-5-carboxamide] | 55400 nM |  | 
CCOC(=O)CS(=O)(=O)c1ccc([C@@H](C)NC(=O)c2cc(-c3ccccc3)n(C)n2)cc1 [Example 15-010, ethyl 2-{4-[(1R)-1-[(1-methyl-5-phenyl-1H-pyrazol-3-yl)formamido]ethyl]benzenesulfonyl}acetate] | 1300 nM |  | 
CCOC(=O)CS(=O)(=O)c1ccc([C@@H](C)NC(=O)c2cc(-n3ccc4ccccc43)nn2C)cc1 [Example 15-005, ethyl 2-{4-[(1R)-1-{[3-(1H-indol-1-yl)-1-methyl-1H-pyrazol-5-yl]formamido}ethyl]benzenesulfonyl}acetate] | 309 nM |  | 
C[C@@H](NC(=O)c1cc(-c2ccc(F)cc2)nn1C)c1ccc(S(=O)(=O)CC(=O)NOC2CCN(C)CC2)cc1 [Example 15-002, 3-(4-fluorophenyl)-1-methyl-N-[(1R)-1-[4-({[(1-methylpiperidin-4-yl)oxy]carbamoyl}methanesulfonyl)phenyl]ethyl]-1H-pyrazole-5-carboxamide] | 85300 nM |  | 
CCOC(=O)CS(=O)(=O)c1ccc([C@@H](C)NC(=O)c2cc(-n3ncc4ccccc43)nn2C)cc1 [Example 15-006, ethyl 2-{4-[(1R)-1-{[3-(1H-indazol-1-yI)-1-methyl-1H-pyrazol-5-yl]formamido}ethyl]benzenesulfonyl}acetate] |  |  | IC50 (MDA-MB-468; MDA-MB-468 cells, 13C3 serine levels by LC/MS/MS, read-out: IC50 (13CSERINE)): 73.3 nM
CONC(=O)CS(=O)(=O)c1ccc([C@@H](C)NC(=O)c2cc(-c3ccc(F)cc3)nn2C)cc1 [Example 15-004, 3-(4-fluorophenyl)-N-[(1R)-1-{4-[(methoxycarbamoyl)methanesulfonyl]phenyl}ethyl]-1-methyl-1H-pyrazole-5-carboxamide] | 6270 nM |  | 
Cc1cc(Cl)c2cc(C(=O)N[C@H](C)c3ccc(S(=O)(=O)CC(=O)CS(=O)(=O)c4ccc([C@@H](C)NC(=O)c5cc6c(Cl)cc(C)cc6n5C)cc4)cc3)n(C)c2c1 [Example 15-008, 4-chloro-N-[(1R)-1-[4-(3-{4-[(1R)-1-[(4-chloro-1,6-dimethyl-1H-indol-2-yl)formamido]ethyl]benzenesulfonyl}-2-oxopropanesulfonyl)phenyl]ethyl]-1,6-dimethyl-1H-indole-2-carboxamide] | 11.9 nM |  | 
Cc1cc2c(cc(C(=O)N[C@H](C)c3ccc(S(=O)(=O)CC(=O)OC(C)C)cc3)n2C)c(Cl)c1Cl [Example 01-037, propan-2-yl 2-{4-[(1R)-1-[(4,5-dichloro-1,6-dimethyl-1H-indol-2-yl)formamido]ethyl]benzenesulfonyl}acetate] |  | 3370 nM | 
Cc1cc2c(cc(C(=O)N[C@H](C)c3ccc([S+]([O-])CC(=O)OC(C)C)cc3)n2C)c(Cl)c1Cl (stereo partly drawn) [Example 13-011, propan-2-yl 2-{4-[(1R)-1-[(4,5-dichloro-1,6-dimethyl-1H-indol-2-yl)formamido]ethyl]benzenesulfinyl}acetate] |  |  | IC50 (PHGDH; [3]): 1740 nM
C#Cc1cc(Cl)c2cc(C(=O)NC(C)c3ccc(S(=O)(=O)CC(=O)O)cc3)n(C)c2c1 (centres unmarked) [Example 03-007, 2-(4-{1-[(4-chloro-6-ethynyl-1-methyl-1H-indol-2-yl)formamido]ethyl}benzenesulfonyl)acetic acid] |  | 29 nM | 
COC(C)(C)COC(=O)CS(=O)(=O)c1ccc([C@@H](C)NC(=O)c2cc3c(Cl)cc(C)cc3n2C)cc1 [Example 09-021, 2-methoxy-2-methylpropyl 2-{4-[(1R)-1-[(4-chloro-1,6-dimethyl-1H-indol-2-yl)formamido]ethyl]benzenesulfonyl}acetate] |  | 574 nM | 
Cc1cc(Cl)c2cc(C(=O)N[C@H](C)c3ccc(S(=O)(=O)CC(=O)N(C)C)cc3)n(C)c2c1 [Example 15-009, 4-chloro-N-[(1R)-1-{4-[(dimethylcarbamoyl)methanesulfonyl]phenyl}ethyl]-1,6-dimethyl-1H-indole-2-carboxamide] | 3390 nM |  | 
Cc1cc(Cl)c2cc(C(=O)N[C@H](C)c3ccc(S(=O)(=O)CC(=O)OCC(CO)COC(=O)C(C)(C)C)cc3)n(C)c2c1 (stereo partly drawn) [Example 09-026, 2-{[(2-{4-[(1R)-1-[(4-chloro-1,6-dimethyl-1H-indol-2-yl)formamido]ethyl]benzenesulfonyl}acetyl)oxy]methyl}-3-hydroxypropyl 2,2-dimethylpropanoate] |  | 1410 nM | 
COC(=O)C(C)(C)S(=O)(=O)c1ccc([C@@H](CO)NC(=O)c2cc(-c3ccc(F)cc3)nn2C)cc1 [Example 06-008, methyl 2-{4-[(1S)-1-{[3-(4-fluorophenyl)-1-methyl-1H-pyrazol-5-yl]formamido}-2-hydroxyethyl]benzenesulfonyl}-2-methylpropanoate] |  | 8340 nM | 
Cc1cc(Cl)c2cc(C(=O)N[C@H](C)c3ccc(S(=O)(=O)CC(=O)CCC(=O)O)cc3)n(C)c2c1 [Example 15-003, 5-{4-[(1R)-1-[(4-chloro-1,6-dimethyl-1H-indol-2-yl)formamido]ethyl]benzenesulfonyl}-4-oxopentanoic acid] | 9640 nM |  | 
Cc1cc(Cl)c2cc(C(=O)N[C@H](CO)c3ccc(S(=O)(=O)CC(=O)OCC4(C)COC4)cc3)n(C)c2c1 [Example 09-031, (3-methyloxetan-3-yl)methyl 2-{4-[(1S)-1-[(4-chloro-1,6-dimethyl-1H-indol-2-yl)formamido]-2-hydroxyethyl]benzenesulfonyl}acetate] |  | 61 nM | 
COC(=O)C(C)(C)S(=O)(=O)c1ccc([C@@H](C)NC(=O)c2cc3cc(Cl)ccc3n2C)cc1 [Example 05-002, methyl 2-{4-[(1R)-1-[(5-chloro-1-methyl-1H-indol-2-yl)formamido]ethyl]benzenesulfonyl}-2-methylpropanoate] |  | 33100 nM | 
Cc1cc(Cl)c2cc(C(=O)N[C@H](C)c3ccc(S(=O)(=O)CC(=O)O[C@H]4CCOC4)cc3)n(C)c2c1 [Example 09-018, (3S)-oxolan-3-yl 2-{4-[(1R)-1-[(4-chloro-1,6-dimethyl-1H-indol-2-yl)formamido]ethyl]benzenesulfonyl}acetate] |  | 418 nM | 
CC(NC(=O)c1cc2c(Cl)cc(I)cc2n1C)c1ccc(S(=O)(=O)CC(=O)O)cc1 (centres unmarked) [Example 03-008, 2-(4-{1-[(4-chloro-6-iodo-1-methyl-1H-indol-2-yl)formamido]ethyl}benzenesulfonyl)acetic acid] |  | 24 nM | 
C[C@@H](NC(=O)c1cc(-c2ccc(F)cc2)nn1C)c1ccc(S(=O)(=O)C2(C(=O)O)CCCC2)cc1 [Example 08-002, 1-{4-[(1R)-1-{[3-(4-fluorophenyl)-1-methyl-1H-pyrazol-5-yl]formamido}ethyl]benzenesulfonyl}cyclopentane-1-carboxylic acid] |  | 74 nM | IC50 (PHGDH; [3]): 95 nM
COC(=O)C1(S(=O)(=O)c2ccc([C@@H](CO)NC(=O)c3cc4c(Cl)cc(C)cc4n3C)cc2)CCOCC1 [Example 05-021, methyl 4-{4-[(1S)-1-[(4-chloro-1,6-dimethyl-1H-indol-2-yl)formamido]-2-hydroxyethyl]benzenesulfonyl}oxane-4-carboxylate] |  | 2450 nM | 
